Reference: patent US20110034469A1, “Heterocyclic Compound” (TAKEDA PHARMACEUTICAL COMPANY LIMITED, priority 2009, published 2011)
Where a name gives a salt, the structure may show the parent alone.

What follows are molecules tested against human XIAP_BIR3 domain purified protein (Homo sapiens, UniProt P98170) (assay: Human XIAP binding inhibitory activity (HTRF, b-Smac ligand)). Settings: read-out: XIAP binding inhibitory rate (%) at 3 μM of the test compound.
human XIAP_BIR3 domain purified protein, sequence (P98170 252-356 limits assumed): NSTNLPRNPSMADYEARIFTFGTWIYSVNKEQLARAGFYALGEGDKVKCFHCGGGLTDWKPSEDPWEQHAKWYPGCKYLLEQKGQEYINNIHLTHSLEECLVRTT
`CN[C@@H](C)C(=O)N[C@@H](CCCNC(=O)OCc1ccccc1)C(=O)N1C[C@H]2CCCN2C[C@H]1C(=O)N[C@@H]1CCCc2ccccc21` [Example 5, benzyl{(4S)-4-[(N-methyl-L-alanyl)amino]-5-oxo-5-[(3S,8aR)-3-((1R)-1,2,3,4-tetrahydronaphthalen-1-ylcarbamoyl)hexahydropyrrolo[1,2-a]pyrazin-2(1H)-yl]pentyl}carbamate dihydrochloride] gave an inhibition at 3 µM of 99.2%.
Molecule `CN[C@@H](C)C(=O)N[C@@H](CCCCNC(=O)OCc1ccccc1)C(=O)N1C[C@H]2CCCN2C[C@H]1C(=O)N[C@@H]1CCCc2ccccc21` [Example 6, benzyl{(5S)-5-[(N-methyl-L-alanyl)amino]-6-oxo-6-[(3S,8aR)-3-[(1R)-1,2,3,4-tetrahydronaphthalen-1-ylcarbamoyl]hexahydropyrrolo[1,2-a]pyrazin-2(1H)-yl]hexyl}carbamate dihydrochloride] has an inhibition at 3 µM of 98.8%.
`CCO[C@@H]1C[C@@H]2CN(C(=O)[C@@H](NC(=O)[C@H](C)NC)C3CCCCC3)[C@H](C(=O)N[C@@H]3CCOc4ccccc43)CN2C1` [Example 18, (3S,7R,8aR)-2-{(2S)-2-cyclohexyl-2-[(N-methyl-L-alanyl)amino]acetyl}-N-[(4R)-3,4-dihydro-2H-chromen-4-yl]-7-ethoxyoctahydropyrrolo[1,2-a]pyrazine-3-carboxamide] gave an inhibition at 3 µM of 99.6%.
Molecule `CN[C@@H](C)C(=O)N[C@H](C(=O)N1C[C@H]2CCCN2C[C@H]1C(=O)N[C@@H]1CCOc2cc(F)cc(F)c21)C1CCCCC1` [Example 24, (3S,8aR)-2-{(2S)-2-cyclohexyl-2-[(N-methyl-L-alanyl)amino]acetyl}-N-[(4R)-5,7-difluoro-3,4-dihydro-2H-chromen-4-yl]octahydropyrrolo[1,2-a]pyrazine-3-carboxamide dihydrochloride] has an inhibition at 3 µM of 97.3%.
In the case of `CN[C@@H](C)C(=O)N[C@H](C(=O)N1C[C@H]2CCCN2C[C@H]1C(=O)N[C@H]1c2ccccc2C[C@H]1O)C1CCCCC1` [Example 27, (3S,8aR)-2-{(2S)-2-cyclohexyl-2-[(N-methyl-L-alanyl)amino]acetyl}-N-[(1S,2R)-2-hydroxy-2,3-dihydro-1H-inden-1-yl]octahydropyrrolo[1,2-a]pyrazine-3-carboxamide dihydrochloride], the inhibition at 3 µM is reported as 97.2%.
With `CN[C@@H](C)C(=O)N[C@H](C(=O)N1C[C@H]2C[C@@](C)(O)CN2C[C@H]1C(=O)N[C@@H]1CCOc2ccccc21)C1CCCCC1` [Example 41, (3S,7R,8aR)-2-{(2S)-2-cyclohexyl-2-[(N-methyl-L-alanyl)amino]acetyl}-N-[(4R)-3,4-dihydro-2H-chromen-4-yl]-7-hydroxy-7-methyloctahydropyrrolo[1,2-a]pyrazine-3-carboxamide dihydrochloride] the inhibition at 3 µM was 93.5%.
`CN[C@@H](C)C(=O)N[C@H](C(=O)N1C[C@H]2CC(F)(F)CN2C[C@H]1C(=O)N[C@@H]1CCOc2ccccc21)C1CCCCC1` [Example 50, (3S,8aR)-2-{(2S)-2-cyclohexyl-2-[(N-methyl-L-alanyl)amino]acetyl}-N-[(4R)-3,4-dihydro-2H-chromen-4-yl]-7,7-difluorooctahydropyrrolo[1,2-a]pyrazine-3-carboxamide dihydrochloride] showed an inhibition at 3 µM of 97.1%.
`CN[C@@H](C)C(=O)N[C@H](C(=O)N1C[C@H]2C[C@@H](OCC3CC3)CN2C[C@H]1C(=O)N[C@@H]1CCOc2ccccc21)C1CCCCC1` [Example 82, (3S,7R,8aR)-2-{(2S)-2-cyclohexyl-2-[(N-methyl-L-alanyl)amino]acetyl}-7-(cyclopropylmethoxy)-N-[(4R)-3,4-dihydro-2H-chromen-4-yl]octahydropyrrolo[1,2-a]pyrazine-3-carboxamide] gave an inhibition at 3 µM of 96.6%.
`CCO[C@@H]1C[C@@H]2CN(C(=O)[C@@H](NC(=O)[C@H](CC)NC)C3CCCCC3)[C@H](C(=O)N[C@@H]3CCOc4ccccc43)CN2C1` [Example 91, (3S,7R,8aR)-2-[(2S)-2-cyclohexyl-2-{[(2S)-2-(methylamino)butanoyl]amino}acetyl]-N-[(4R)-3,4-dihydro-2H-chromen-4-yl]-7-ethoxyoctahydropyrrolo[1,2-a]pyrazine-3-carboxamide] was tested, and the inhibition at 3 µM was 95.5%.
`CN[C@@H](C)C(=O)N[C@@H](CCCCNC(=O)c1ccc(C(=O)NCCCC[C@H](NC(=O)[C@H](C)NC)C(=O)N2C[C@H]3CCCN3C[C@H]2C(=O)N[C@@H]2CCCc3ccccc32)cc1)C(=O)N1C[C@H]2CCCN2C[C@H]1C(=O)N[C@@H]1CCCc2ccccc21` [Example 125, N,N′-bis{(5S)-5-[(N-methyl-L-alanyl)amino]-6-oxo-6-[(3S,8aR)-3-[(1R)-1,2,3,4-tetrahydronaphthalen-1-ylcarbamoyl]hexahydropyrrolo[1,2-a]pyrazin-2(1H)-yl]hexyl}benzene-1,4-dicarboxamide] gave an inhibition at 3 µM of 98.9%.
Molecule `CN[C@@H](C)C(=O)N[C@@H](CCCCNC(=O)CCCCCCCCC(=O)NCCCC[C@H](NC(=O)[C@H](C)NC)C(=O)N1C[C@H]2CCCN2C[C@H]1C(=O)N[C@@H]1CCCc2ccccc21)C(=O)N1C[C@H]2CCCN2C[C@H]1C(=O)N[C@@H]1CCCc2ccccc21` [Example 126, N,N′-bis{(5S)-5-[(N-methyl-L-alanyl)amino]-6-oxo-6-[(3S,8aR)-3-[(1R)-1,2,3,4-tetrahydronaphthalen-1-ylcarbamoyl]hexahydropyrrolo[1,2-a]pyrazin-2(1H)-yl]hexyl}decanediamide] has an inhibition at 3 µM of 99%.
For `CCO[C@@H]1C[C@@H]2CN(C(=O)[C@@H](NC(=O)[C@H](CC)NC)C3CCC(F)(F)CC3)[C@H](C(=O)N[C@@H]3CCOc4ccccc43)CN2C1` [Example 127, (3S,7R,8aR)-2-[(2S)-2-(4,4-difluorocyclohexyl)-2-{[(2S)-2-(methylamino)butanoyl]amino}acetyl]-N-[(4R)-3,4-dihydro-2H-chromen-4-yl]-7-ethoxyoctahydropyrrolo[1,2-a]pyrazine-3-carboxamide], the inhibition at 3 µM was 98%.

These molecules were tested on human breast cancer cell MDA-MB-231-Luc (assay: In vivo breast cancer cell tumor regression activity). Settings: orally 100 mg/kg, twice per day for 14 days; subcutaneous MDA-MB-231-Luc tumor in female nude mouse.
Description: MDA-MB-231 cells (American Tissue Culture Collection) were suspended in DMEM medium (Invitrogen) containing 10% fetal bovine serum (Cell Culture Bioscience), plated in a 12-well plate at 1×10^5 cells/mL, each well 1 mL, and the cells were cultured. After 24 hr of culture, the medium was removed, 100 μL of OMEM (Invitrogen) containing […] of pGL4 CMV-luc/Neo plasmid and Lipofectamin LTX (Invitrogen) was added to each well for transfection according to the attached instruction manual. After the plasmid DNA introduction is operation for 25 min., the medium was exchanged with DMEM medium, and the cells were further cultured for 72 hr. The introduced cells were suspended in a medium containing […] G418 (Sigma Ltd.) by a trypsin (Invitrogen) treatment, and plated again in a 6-well plate. […] Finally, MDA-MB-231 cells capable of growing in a medium containing […] G418 were treated by a limit dilution method to give a single colony. Luciferin (Promega) was added to MDA-MB-231 cells in each clone, and the chemical luminescence level was measured using ARVO (PerkinElmer) to give MDA-MB-231-Luc.
The human breast cancer cell MDA-MB-231-Luc ([…]) obtained in Experimental Example 5 were suspended in Matrigel solution (BD Bioscience) and transplanted into 6-week-old BALE/c female nude mouse (CLEA Japan, Inc.) by subcutaneous injection. Mice with a tumor engrafted at a size in tumor volume of about 200 mm^3 on day 12-15 post-transplantation were selected and 5 per group were used for the experiment. A 0.5% methylcellulose (Wako Pure Chemical Industries, Ltd.) suspension or 0.1 M PBS solution (NaH2PO4/Na2HPO4, pH 5.8) of the compound was orally administered at a dose of 100 mg/kg, twice per day for 14 days. The tumor diameter was measured on the day of start of the administration and the day of completion of the administration, and the tumor volume was obtained from formula 1.
tumor volume=long diameter×short diameter×short diameter×(½) formula 1
The ratio of the value obtained by subtracting tumor volume on the day of completion of the administration from that on the day of start of the administration to the tumor volume on the day of start of the administration was obtained as a tumor regression rate from the formula 2.
tumor regression rate (%)=(tumor volume on the day of start of administration−tumor volume on the day of completion of administration)/tumor volume on the day of start of administration×100 formula 2
For `CCO[C@@H]1C[C@@H]2CN(C(=O)[C@@H](NC(=O)[C@H](C)NC)C3CCCCC3)[C@H](C(=O)N[C@@H]3CCOc4ccccc43)CN2C1` [Example 18, (3S,7R,8aR)-2-{(2S)-2-cyclohexyl-2-[(N-methyl-L-alanyl)amino]acetyl}-N-[(4R)-3,4-dihydro-2H-chromen-4-yl]-7-ethoxyoctahydropyrrolo[1,2-a]pyrazine-3-carboxamide], the “tumor regression rate (%)” value was 78%.
`CN[C@@H](C)C(=O)N[C@H](C(=O)N1C[C@H]2CCCN2C[C@H]1C(=O)N[C@@H]1CCOc2ccccc21)c1ccccc1.Cl.Cl` [Example 19, (3S,8aR)—N-[(4R)-3,4-dihydro-2H-chromen-4-yl]-2-{(2S)-2-[(N-methyl-L-alanyl)amino]-2-phenylacetyl}octahydropyrrolo[1,2-a]pyrazine-3-carboxamide dihydrochloride] was tested, and the “tumor regression rate (%)” value was 64%.
For `CCO[C@@H]1C[C@@H]2CN(C(=O)[C@@H](NC(=O)[C@H](C)NC)C3CCC(F)(F)CC3)[C@H](C(=O)N[C@@H]3CCOc4ccccc43)CN2C1` [Example 23, (3S,7R,8aR)-2-{(2S)-2-(4,4-difluorocyclohexyl)-2-[(N-methyl-L-alanyl)amino]acetyl}-N-[(4R)-3,4-dihydro-2H-chromen-4-yl]-7-ethoxyoctahydropyrrolo[1,2-a]pyrazine-3-carboxamide], the “tumor regression rate (%)” value was 74%.
For `CN[C@@H](C)C(=O)N[C@H](C(=O)N1C[C@H]2CCCN2C[C@H]1C(=O)N[C@@H]1CCOc2cc(F)cc(F)c21)C1CCCCC1` [Example 24, (3S,8aR)-2-{(2S)-2-cyclohexyl-2-[(N-methyl-L-alanyl)amino]acetyl}-N-[(4R)-5,7-difluoro-3,4-dihydro-2H-chromen-4-yl]octahydropyrrolo[1,2-a]pyrazine-3-carboxamide dihydrochloride], the “tumor regression rate (%)” value was 55%.
For `CN[C@@H](C)C(=O)N[C@H](C(=O)N1C[C@H]2CCCN2C[C@H]1C(=O)N[C@H]1c2ccccc2C[C@@H]1O)C1CCCCC1.Cl.Cl` [Example 26, (3S,8aR)-2-{(2S)-2-cyclohexyl-2-[(N-methyl-L-alanyl)amino]acetyl}-N-[(1S,2S)-2-hydroxy-2,3-dihydro-1H-inden-1-yl]octahydropyrrolo[1,2-a]pyrazine-3-carboxamide dihydrochloride], the “tumor regression rate (%)” value was 41%.
In the case of `CN[C@@H](C)C(=O)N[C@H](C(=O)N1C[C@H]2CCCN2C[C@H]1C(=O)N[C@@H]1CCOc2ccccc21)C1CCC(F)(F)CC1.Cl.Cl` [Example 32, (3S,8aR)-2-{(2S)-2-(4,4-difluorocyclohexyl)-2-[(N-methyl-L-alanyl)amino]acetyl}-N-[(4R)-3,4-dihydro-2H-chromen-4-yl]octahydropyrrolo[1,2-a]pyrazine-3-carboxamide dihydrochloride], the “tumor regression rate (%)” value is reported as 61%.
